Results from patent publication US11470846B2, “Herbicidal pyridino-/pyrimidino-thiazoles” (SYNGENTA PARTICIPATIONS AG, priority 2014, dated 2022).

How the values were obtained:
Format in all cases: in vivo
[1] = system: Avena fatua (AVEFA); experiment: Post-emergence herbicidal activity; conditions: post-emergence application, 1000 g/Ha, evaluated after 13 days, scale 0-5
Method: (§1) B2 Post-Emergence Herbicidal Activity
(§2) Seeds of a variety of test species were sown in standard soil in pots: Triticum aestivium (TRZAW), Oryza sativa (ORYSA), Avena fatua (AVEFA), Alopecurus myosuroides (ALOMY), Echinochloa crus-galli (ECHCG), Lolium perenne (LOLPE), Zea Mays (ZEAMX), Abutilon theophrasti (ABUTH), Amaranthus retroflexus (AMARE) and Setaria faberi (SETFA). After 8 days cultivation (post-emergence) under controlled conditions in a glasshouse (at 24/16° C., day/night; 14 hours light; 65% humidity), the plants were sprayed with an aqueous spray solution derived from the formulation of the technical active ingredient in acetone/water (50:50) solution containing 0.5% Tween 20 (polyoxyethelyene sorbitan monolaurate, CAS RN 9005-64-5). The test plants were then grown in a glasshouse under controlled conditions (at 24/16° C., day/night; 14 hours light; 65% humidity) and watered twice daily. After 13 days, the test was evaluated (5=total damage to plant; 0=no damage to plant).

[2] = system: Lolium perenne (LOLPE); experiment: Post-emergence herbicidal activity; conditions: post-emergence application, 1000 g/Ha, evaluated after 13 days, scale 0-5; Table 7
Method: as §1, §2

[3] = system: Triticum aestivium (TRZAW); experiment: Post-emergence herbicidal activity; conditions: post-emergence application, 1000 g/Ha, evaluated after 13 days, scale 0-5
Method: as §1, §2

[4] = system: Echinochloa crus-galli (ECHCG); experiment: Post-emergence herbicidal activity; conditions: post-emergence application, 1000 g/Ha, evaluated after 13 days, scale 0-5; Table 7
Method: as §1, §2

[5] = system: Oryza sativa (ORYSA); experiment: Post-emergence herbicidal activity; conditions: post-emergence application, 1000 g/Ha, evaluated after 13 days, scale 0-5
Method: as §1, §2

[6] = system: Alopecurus myosuroides (ALOMY); experiment: Post-emergence herbicidal activity; conditions: post-emergence application, 1000 g/Ha, evaluated after 13 days, scale 0-5
Method: as §1, §2

[7] = system: Avena fatua (AVEFA); experiment: Pre-emergence herbicidal activity; conditions: pre-emergence application, 1000 g/Ha, evaluated after 13 days, scale 0-5
Method: (§3) B1 Pre-Emergence Herbicidal Activity
as §2, with “After” for “After 8 days”, “for one day (pre-emergence)” for “(post-emergence)”

[8] = system: Lolium perenne (LOLPE); experiment: Pre-emergence herbicidal activity; conditions: pre-emergence application, 1000 g/Ha, evaluated after 13 days, scale 0-5; Table 5
Method: as §3
as §2, with “After” for “After 8 days”, “for one day (pre-emergence)” for “(post-emergence)”

[9] = system: Triticum aestivium (TRZAW); experiment: Pre-emergence herbicidal activity; conditions: pre-emergence application, 1000 g/Ha, evaluated after 13 days, scale 0-5
Method: as §3
as §2, with “After” for “After 8 days”, “for one day (pre-emergence)” for “(post-emergence)”

[10] = system: Echinochloa crus-galli (ECHCG); experiment: Pre-emergence herbicidal activity; conditions: pre-emergence application, 1000 g/Ha, evaluated after 13 days, scale 0-5; Table 5
Method: as §3
as §2, with “After” for “After 8 days”, “for one day (pre-emergence)” for “(post-emergence)”

[11] = system: Oryza sativa (ORYSA); experiment: Pre-emergence herbicidal activity; conditions: pre-emergence application, 1000 g/Ha, evaluated after 13 days, scale 0-5
Method: as §3
as §2, with “After” for “After 8 days”, “for one day (pre-emergence)” for “(post-emergence)”

[12] = system: Alopecurus myosuroides (ALOMY); experiment: Pre-emergence herbicidal activity; conditions: pre-emergence application, 1000 g/Ha, evaluated after 13 days, scale 0-5
Method: as §3
as §2, with “After” for “After 8 days”, “for one day (pre-emergence)” for “(post-emergence)”

SMILES | Control of weed species, AVEFA (damage score) [1] | Control of weed species, LOLPE (damage score) [2] | Control of weed species, TRZAW (damage score) [3] | Control of weed species, ECHCG (damage score) [4] | Control of weed species, ORYSA (damage score) [5] | Control of weed species, ALOMY (damage score) [6] | Control of weed species, AVEFA (damage score) [7] | Control of weed species, LOLPE (damage score) [8] | Control of weed species, TRZAW (damage score) [9] | Control of weed species, ECHCG (damage score) [10] | Control of weed species, ORYSA (damage score) [11] | Control of weed species, ALOMY (damage score) [12]
CCN(C(=O)OC(C)(C)C)c1sc(-c2cccnc2)nc1C [Compound A17] | 4 | 2 | 1 | 1 | 2 | 1 | 0 | 0 | 0 | 0 | 0 | 0
COC(=O)N(C)c1sc(-c2cccnc2)nc1C [Compound A18] | 3 | 2 | 1 | 5 | 0 | 1 | 2 | 2 | 1 | 5 | 0 | 1
CCOC(=O)N(C)c1sc(-c2cccnc2)nc1C [Compound A19, ethyl N-methyl-N-[4-methyl-2-(3-pyridyl)thiazol-5-yl]carbamate] | 3 | 2 | 1 | 5 | 0 | 1 | 1 | 1 | 0 | 5 | 0 | 1
Cc1nc(-c2cccnc2)sc1N(C)C(=O)OC(C)C [Compound A20] | 3 | 3 | 1 | 5 | 0 | 1 | 2 | 2 | 0 | 5 | 0 | 0
Cc1nc(-c2cccnc2)sc1N(C)C(=O)NC(C)(C)C [Compound A21, 3-tert-butyl-1-methyl-1-[4-methyl-2-(3-pyridyl)thiazol-5-yl]urea] | 4 | 3 | 1 | 5 | 0 | 2 | 2 | 1 | 0 | 5 | 0 | 0
Cc1nc(-c2cccnc2)sc1N(C)C(=O)SC(C)(C)C [Compound A22, S-tert-butyl N-methyl-N-[4-methyl-2-(3-pyridyl)thiazol-5-yl]carbamothioate] | 2 | 2 | 0 | 2 | 0 | 0 | 0 | 0 | 0 | 0 | 0 | 0
